Test results taken from PubChem BioAssay AID652132 (Broad Institute, 2013).

Test system: Signal transducer and activator of transcription 1 (STAT1), rat
Test: reduction of cytokine-raised STAT1 and pSTAT1, late-stage follow-up, mechanism study, cell-based, rat, cytokine stimulus, time course (AID 652132)
Conditions: INS-1E cells, cytokine-induced STAT1/pSTAT1 western blot, at 10 µM, stronger effect = higher value

Q: For `C[C@@H]1CN([C@@H](C)CO)C(=O)c2cccc(NC(=O)Nc3cccc4ccccc34)c2O[C@H]1CN(C)S(=O)(=O)c1ccc2c(c1)OCCO2`, which p-STAT1 inhibition, 24 h is on record?
A: Its p-STAT1 inhibition, 24 h is 65%.

Q: What about the inhibition (measured here: p-STAT1 inhibition 8 h) of the same compound?
A: Its inhibition is 97%.

Q: And the inhibition (measured here: p-STAT1 inhibition 12 h)?
A: Its inhibition is 80%.

Q: What about the inhibition (measured here: total STAT1 inhibition 8 h) of the same compound?
A: Its inhibition is 69%.

Q: And the inhibition (measured here: total STAT1 inhibition 12 h)?
A: Its inhibition is 53%.

Q: What about the inhibition (measured here: total STAT1 inhibition 24 h) of the same compound?
A: The inhibition was 43%.
